Counter-ions that a name gives are not always drawn.
Assays:
[1] = target: T1, Histamine H3 Receptor (Rattus norvegicus, UniProt Q9QYN8); experiment: Blockade of RAMH-induced drinking assay; format: in vivo; conditions: male Sprague Dawley rats, 0.3 mg/kg PO, RAMH 3 mg/kg SC, reduction in water intake
Protocol: Blockade of RAMH-Induced Drinking Assay
When administered to rodents, histamine H3 receptor agonists such as (R)-α-methylhistamine (RAMH) induce a drinking response that is sensitive to reversal with a histamine H3 receptor antagonist. Blockade of RAMH-induced drinking can therefore be utilized as an in vivo assay for functional histamine H3 receptor antagonist activity. In this assay, male Sprague Dawley rats (250-350 g) were housed three per cage and maintained under a reverse 12 h light cycle (lights off at 1130 h). At 1030 h on the day of test, rats were individually housed in new cages and food was removed. 120 min later, rats were administered test article (vehicle or histamine H3 receptor antagonist, 0.3 mg/kg PO). 30 min later, water was removed, and RAMH (vehicle or RAMH 3 mg/kg salt SC) was administered. 10 min after administration of RAMH, weighed water bottles were placed in the cages, and drinking was allowed for 20 min. Water consumption was determined for each animal by weighing each bottle to the nearest 0.1 g. Data is expressed as percentage reduction in water intake according to the following formula:
[((VEH/RAMH)−(ANTAGONIST/RAMH))/((VEH/RAMH)−(VEH/VEH))]*100

[2] = target: T1, Histamine H3 Receptor; experiment: [3H] N-alpha-methyl-histamine competitive histamine H3 receptor binding assay; parameters: A crude membrane fraction was prepared from whole rat brain cortex; from tissue; host or cells: whole rat brain cortex, crude membrane fraction; conditions: whole rat brain cortex membranes, [3H]-N-α-methylhistamine 1 nM
Protocol: [^3H] N-Alpha-Methyl-Histamine Competitive Histamine H3 Receptor Binding Assay
The histamine receptor binding assay was conducted using standard laboratory procedures as described below. A crude membrane fraction was prepared from whole rat brain cortex using a polytron to homogenize the tissue followed by differential centrifugation in a HEPES-based buffer containing protease inhibitors. Membranes where frozen at −80° C. until needed. Frozen membranes were thawed and resuspended in ice-cold assay buffer consisting of 50 mM TRIS containing 5 mM EDTA (pH=7.4). 50 micrograms (μg) of membrane protein was added to each well of a 96-well assay plate along with test compound and [^3H]-N-α-methylhistamine (1 nanomolar (nM) final assay concentration). Imetit was used as an assay positive control at varying concentrations. The plate was incubated for 30 min at room temperature. The assay was terminated by rapid filtration through a 96-well glass fiber filtration plate (GF/C) using a cell harvester (Perkin-Elmer). Captured membranes were washed three times with cold assay buffer and plates were dried at 50° C. 35 microliters (μL) of scintillation cocktail was added to each well and membrane-bound radioactivity was recorded using a TopCount 96-well plate scintillation counter (Perkin-Elmer).

[3] = target: T2, human histamine H3 receptor (Homo sapiens, UniProt Q9Y5N1); experiment: Human histamine H3 receptor binding assay, MDS Pharma Services (Taiwan), Catalogue No. 239810
T2 construct: purchased MDS Pharma Services (Taiwan) 239810
Protocol: Human Histamine H3 Receptor Binding Assay—MDS Pharma Services (Taiwan)
Compounds of the invention were tested for their ability to bind to the human histamine H3 receptor using the MDS Pharma Services (Taiwan) assay, Catalogue No. 239810.

[4] = Dynamic vapor sorption (DVS) hygroscopicity; format: physicochemical; conditions: 25° C.
Protocol: Dynamic Vapor Sorption (DVS)
Hygroscopicity was measured using a dynamic moisture-sorption analyzer, VTI Corporation, SGA-100. The sample was placed as-is in a tared sample holder on the VTI balance. A drying step was run at 40° C. and ˜1% RH for 120 minutes. The isotherm conditions are 25° C. with steps of 20% RH from 10% RH up to 90% RH and back to 10% RH. Weight is checked every 2 minutes. Percent weight change of <0.01% in 20 minutes or 2 hours, whichever occurs first, is required before continuing to the next step. The DVS profile for the crystalline form (Form 1) of (R)-2-hydroxy-1-(6-(4-(2-(2-methylpyrrolidin-1-yl)ethyl)phenyl)-3,4-dihydroisoquinolin-2(1H)-yl)ethanone hydrochloride is shown in FIG. 16.

T1 sequence (Q9QYN8 whole entry): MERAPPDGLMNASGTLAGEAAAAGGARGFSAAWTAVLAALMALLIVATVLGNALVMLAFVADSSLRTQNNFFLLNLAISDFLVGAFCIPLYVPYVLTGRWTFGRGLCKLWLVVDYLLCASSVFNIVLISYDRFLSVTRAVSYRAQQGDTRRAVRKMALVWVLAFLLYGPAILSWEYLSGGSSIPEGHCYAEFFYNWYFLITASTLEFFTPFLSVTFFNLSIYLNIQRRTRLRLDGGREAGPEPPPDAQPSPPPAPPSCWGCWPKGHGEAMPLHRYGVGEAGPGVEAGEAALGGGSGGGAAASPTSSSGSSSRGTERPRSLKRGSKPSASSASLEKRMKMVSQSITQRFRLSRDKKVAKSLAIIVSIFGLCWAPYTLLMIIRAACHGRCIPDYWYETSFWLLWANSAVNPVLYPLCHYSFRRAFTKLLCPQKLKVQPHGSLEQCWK
T2 sequence (Q9Y5N1 whole entry): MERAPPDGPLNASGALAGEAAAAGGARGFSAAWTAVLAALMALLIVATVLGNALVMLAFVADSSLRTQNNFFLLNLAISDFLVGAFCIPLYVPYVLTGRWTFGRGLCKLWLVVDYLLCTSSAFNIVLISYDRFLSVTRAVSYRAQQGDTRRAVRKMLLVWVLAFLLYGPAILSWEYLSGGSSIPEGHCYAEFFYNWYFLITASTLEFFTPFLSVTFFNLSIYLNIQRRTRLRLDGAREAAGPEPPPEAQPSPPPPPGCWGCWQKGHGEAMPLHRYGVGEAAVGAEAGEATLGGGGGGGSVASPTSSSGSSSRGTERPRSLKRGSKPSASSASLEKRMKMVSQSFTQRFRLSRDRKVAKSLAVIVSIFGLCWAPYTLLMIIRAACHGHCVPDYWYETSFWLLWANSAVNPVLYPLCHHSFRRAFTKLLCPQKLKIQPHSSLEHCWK

% inhibition of RAMH-induced drinking [1] | Ki [2] | SMILES | also measured
81.6% | – | COCCC(=O)N1CCc2ccc(-c3ccc(CCN4CCC[C@H]4C)cc3)cc2C1 [Compound 1, (R)-3-methoxy-1-(7-(4-(2-(2-methylpyrrolidin-1-yl)ethyl)phenyl)-3,4-dihydroisoquinolin-2(1H)-yl)propan-1-one] | –
– | 0.45 nM | C[C@@H]1CCCN1CCc1ccc(-c2ccc3c(c2)CCN(C(=O)C2CC2)C3)cc1 [Compound 3, (R)-cyclopropyl(6-(4-(2-(2-methylpyrrolidin-1-yl)ethyl)phenyl)-3,4-dihydroisoquinolin-2(1H)-yl)methanone] | –
– | 0.11 nM | C[C@@H]1CCCN1CCc1ccc(-c2ccc3c(c2)CN(C(=O)C2CC2)C3)cc1 [Compound 5, (R)-cyclopropyl(5-(4-(2-(2-methylpyrrolidin-1-yl)ethyl)phenyl)isoindolin-2-yl)methanone] | Ki [3]: 0.57 nM
– | 1.1 nM | COc1ccc(C(=O)N2CCc3cc(-c4ccc(CCN5CCC[C@H]5C)cc4)ccc3C2)cc1 [Compound 9, (R)-(4-methoxyphenyl)(6-(4-(2-(2-methylpyrrolidin-1-yl)ethyl)phenyl)-3,4-dihydroisoquinolin-2(1H)-yl)methanone] | –
– | – | C[C@@H]1CCCN1CCc1ccc(-c2ccc3c(c2)CCN(C(=O)CO)C3)cc1 [Compound 10 HCl Salt (Form 1), (R)-2-hydroxy-1-(6-(4-(2-(2-methylpyrrolidin-1-yl)ethyl)phenyl)-3,4-dihydroisoquinolin-2(1H)-yl)ethanone hydrochloride] | DVS absorption at 90% relative humidity ([4]; crystalline Form 1, hydrochloride): FIG. 16: absorption of less than 0.25%; DVS absorption at 90% relative humidity ([4]; crystalline Form 1, listed as Form 1 of the HCl salt of Compound 10, hydrochloride): about 0.25%
– | 0.09 nM | C[C@@H]1CCCN1CCc1ccc(-c2ccc3c(c2)CN(C(=O)C2CCOCC2)C3)cc1 [Compound 12, (R)-(5-(4-(2-(2-methylpyrrolidin-1-yl)ethyl)phenyl)isoindolin-2-yl)(tetrahydro-2H-pyran-4-yl)methanone] | –
40.7% | – | C[C@@H]1CCCN1CCc1ccc(-c2ccc3c(c2)CCN(C(=O)c2ccncc2)C3)cc1 [Compound 14, (R)-(6-(4-(2-(2-methylpyrrolidin-1-yl)ethyl)phenyl)-3,4-dihydroisoquinolin-2(1H)-yl)(pyridin-4-yl)methanone] | –
– | 1.52 nM | C[C@@H]1CCCN1CCc1ccc(-c2ccc3c(c2)CCN(C(=O)CCO)C3)cc1 [Compound 16, (R)-3-hydroxy-1-(6-(4-(2-(2-methylpyrrolidin-1-yl)ethyl)phenyl)-3,4-dihydroisoquinolin-2(1H)-yl)propan-1-one] | –
66.1% | – | C[C@@H]1CCCN1CCc1ccc(-c2ccc3c(c2)CCN(C(=O)c2ccccn2)C3)cc1 [Compound 18, (R)-(6-(4-(2-(2-methylpyrrolidin-1-yl)ethyl)phenyl)-3,4-dihydroisoquinolin-2(1H)-yl)(pyridin-2-yl)methanone] | Ki [3]: 2.15 nM

Reference: US20100331312A1, “MODULATORS OF THE HISTAMINE H3 RECEPTOR USEFUL FOR THE TREATMENT OF DISORDERS RELATED THERETO” (ARENA PHARMACEUTICALS, INC., priority 2008, published 2010)
